Key:
[1] = biological target: T1, Human immunodeficiency virus type 1 integrase (Human immunodeficiency virus 1, UniProt Q7ZJM1); experiment: Compound was tested for the inhibition HIV integrase strand transfer activity
[2] = biological target: T1, Human immunodeficiency virus type 1 integrase; experiment: Compound was tested for the inhibition HIV integrase 3'-processing activity

T1 sequence (Q7ZJM1 whole entry): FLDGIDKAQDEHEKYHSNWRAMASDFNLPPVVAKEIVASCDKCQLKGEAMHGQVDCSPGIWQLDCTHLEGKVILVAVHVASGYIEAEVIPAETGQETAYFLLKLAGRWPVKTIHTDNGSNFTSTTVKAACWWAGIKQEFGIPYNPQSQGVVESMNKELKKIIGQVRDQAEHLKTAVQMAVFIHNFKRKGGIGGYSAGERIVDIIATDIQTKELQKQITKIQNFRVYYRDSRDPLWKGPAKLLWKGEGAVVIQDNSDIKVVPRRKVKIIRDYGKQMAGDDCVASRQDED

IC50 [1]: 25 µM | IC50 [2]: 19 µM
Structure (SMILES): Nc1ccn([C@H]2C[C@@H](O)[C@@H](COP(=O)(O)O[C@@H]3[C@H](COP(=O)(O)O)OC[C@@H]3n3cnc4c(N)ncnc43)O2)c(=O)n1
